Reference: US20220356174A1, “PYRIDIN-2-ONE COMPOUNDS USEFUL AS SMARCA2 ANTAGONISTS” (Epizyme, Inc., priority 2018, published 2022)
pIC50: −log10 of the molar value.

How the values were obtained:
[1] = biological target: T1, FL-SMARCA2 (full-length human SMARCA2 isoform 1) (Homo sapiens, UniProt P51531); assay: SMARCA2 ATPase activity assay (ADP-Glo, chicken mononucleosome substrate); assay type: biochemical; conditions: ATPase assay, enzyme 5 nM, ATP 250 uM, chicken mononucleosome 10 nM, 30 min preincubation
T1 construct: FLAG tag (YKDDDDK) (C); made in house; host or cells: Sf21 insect cells (baculovirus, pFastBacI)
T1 sequence (P51531 with tags, fused parts or gaps): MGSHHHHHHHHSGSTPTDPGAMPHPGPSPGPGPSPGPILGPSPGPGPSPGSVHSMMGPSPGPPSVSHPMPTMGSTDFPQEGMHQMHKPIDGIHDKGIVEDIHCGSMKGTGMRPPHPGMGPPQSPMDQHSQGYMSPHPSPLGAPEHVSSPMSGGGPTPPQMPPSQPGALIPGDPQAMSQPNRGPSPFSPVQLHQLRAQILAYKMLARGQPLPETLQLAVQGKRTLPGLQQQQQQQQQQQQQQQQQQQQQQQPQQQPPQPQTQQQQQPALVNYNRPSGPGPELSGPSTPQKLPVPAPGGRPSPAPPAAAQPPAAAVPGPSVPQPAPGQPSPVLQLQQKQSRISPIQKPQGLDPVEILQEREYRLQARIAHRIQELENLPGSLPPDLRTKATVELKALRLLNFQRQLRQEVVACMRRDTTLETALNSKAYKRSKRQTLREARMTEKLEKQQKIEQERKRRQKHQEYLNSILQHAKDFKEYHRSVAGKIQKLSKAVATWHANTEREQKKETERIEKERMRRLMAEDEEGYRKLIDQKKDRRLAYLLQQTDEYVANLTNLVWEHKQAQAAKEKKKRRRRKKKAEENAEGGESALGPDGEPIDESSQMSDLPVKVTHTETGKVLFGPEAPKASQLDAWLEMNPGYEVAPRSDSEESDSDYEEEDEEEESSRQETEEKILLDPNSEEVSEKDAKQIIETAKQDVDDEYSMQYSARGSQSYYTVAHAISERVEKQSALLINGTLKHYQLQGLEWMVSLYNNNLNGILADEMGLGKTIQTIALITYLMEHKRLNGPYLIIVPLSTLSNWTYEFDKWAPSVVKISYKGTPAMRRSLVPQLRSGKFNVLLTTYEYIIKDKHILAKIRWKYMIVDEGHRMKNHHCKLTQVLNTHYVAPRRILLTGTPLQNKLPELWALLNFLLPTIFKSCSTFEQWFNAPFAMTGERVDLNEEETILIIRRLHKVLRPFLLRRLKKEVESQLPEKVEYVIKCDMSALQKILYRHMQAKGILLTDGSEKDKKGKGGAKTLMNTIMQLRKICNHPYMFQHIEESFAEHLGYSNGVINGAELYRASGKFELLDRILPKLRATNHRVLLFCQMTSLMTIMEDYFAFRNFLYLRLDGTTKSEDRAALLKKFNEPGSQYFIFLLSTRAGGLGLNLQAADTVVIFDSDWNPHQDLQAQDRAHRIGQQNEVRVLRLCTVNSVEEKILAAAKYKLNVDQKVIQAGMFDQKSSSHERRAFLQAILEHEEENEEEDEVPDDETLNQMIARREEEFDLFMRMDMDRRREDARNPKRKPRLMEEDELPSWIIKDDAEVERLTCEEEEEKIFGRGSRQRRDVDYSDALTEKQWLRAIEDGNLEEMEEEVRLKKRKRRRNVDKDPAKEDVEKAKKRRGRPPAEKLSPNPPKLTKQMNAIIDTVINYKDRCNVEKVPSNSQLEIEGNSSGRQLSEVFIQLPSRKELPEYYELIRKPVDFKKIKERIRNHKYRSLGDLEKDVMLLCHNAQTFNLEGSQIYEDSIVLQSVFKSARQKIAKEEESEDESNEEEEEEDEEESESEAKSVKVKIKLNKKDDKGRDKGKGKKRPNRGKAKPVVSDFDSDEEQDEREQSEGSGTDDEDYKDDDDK

[2] = biological target: FL-SMARCA4 (Homo sapiens, UniProt P51532); assay: SMARCA4 ATPase activity assay (ADP-Glo, chicken mononucleosome substrate); conditions: ATPase assay, enzyme 5 nM, ATP 250 uM, chicken mononucleosome 10 nM, 30 min preincubation
Chain of FL-SMARCA4 (P51532 whole entry): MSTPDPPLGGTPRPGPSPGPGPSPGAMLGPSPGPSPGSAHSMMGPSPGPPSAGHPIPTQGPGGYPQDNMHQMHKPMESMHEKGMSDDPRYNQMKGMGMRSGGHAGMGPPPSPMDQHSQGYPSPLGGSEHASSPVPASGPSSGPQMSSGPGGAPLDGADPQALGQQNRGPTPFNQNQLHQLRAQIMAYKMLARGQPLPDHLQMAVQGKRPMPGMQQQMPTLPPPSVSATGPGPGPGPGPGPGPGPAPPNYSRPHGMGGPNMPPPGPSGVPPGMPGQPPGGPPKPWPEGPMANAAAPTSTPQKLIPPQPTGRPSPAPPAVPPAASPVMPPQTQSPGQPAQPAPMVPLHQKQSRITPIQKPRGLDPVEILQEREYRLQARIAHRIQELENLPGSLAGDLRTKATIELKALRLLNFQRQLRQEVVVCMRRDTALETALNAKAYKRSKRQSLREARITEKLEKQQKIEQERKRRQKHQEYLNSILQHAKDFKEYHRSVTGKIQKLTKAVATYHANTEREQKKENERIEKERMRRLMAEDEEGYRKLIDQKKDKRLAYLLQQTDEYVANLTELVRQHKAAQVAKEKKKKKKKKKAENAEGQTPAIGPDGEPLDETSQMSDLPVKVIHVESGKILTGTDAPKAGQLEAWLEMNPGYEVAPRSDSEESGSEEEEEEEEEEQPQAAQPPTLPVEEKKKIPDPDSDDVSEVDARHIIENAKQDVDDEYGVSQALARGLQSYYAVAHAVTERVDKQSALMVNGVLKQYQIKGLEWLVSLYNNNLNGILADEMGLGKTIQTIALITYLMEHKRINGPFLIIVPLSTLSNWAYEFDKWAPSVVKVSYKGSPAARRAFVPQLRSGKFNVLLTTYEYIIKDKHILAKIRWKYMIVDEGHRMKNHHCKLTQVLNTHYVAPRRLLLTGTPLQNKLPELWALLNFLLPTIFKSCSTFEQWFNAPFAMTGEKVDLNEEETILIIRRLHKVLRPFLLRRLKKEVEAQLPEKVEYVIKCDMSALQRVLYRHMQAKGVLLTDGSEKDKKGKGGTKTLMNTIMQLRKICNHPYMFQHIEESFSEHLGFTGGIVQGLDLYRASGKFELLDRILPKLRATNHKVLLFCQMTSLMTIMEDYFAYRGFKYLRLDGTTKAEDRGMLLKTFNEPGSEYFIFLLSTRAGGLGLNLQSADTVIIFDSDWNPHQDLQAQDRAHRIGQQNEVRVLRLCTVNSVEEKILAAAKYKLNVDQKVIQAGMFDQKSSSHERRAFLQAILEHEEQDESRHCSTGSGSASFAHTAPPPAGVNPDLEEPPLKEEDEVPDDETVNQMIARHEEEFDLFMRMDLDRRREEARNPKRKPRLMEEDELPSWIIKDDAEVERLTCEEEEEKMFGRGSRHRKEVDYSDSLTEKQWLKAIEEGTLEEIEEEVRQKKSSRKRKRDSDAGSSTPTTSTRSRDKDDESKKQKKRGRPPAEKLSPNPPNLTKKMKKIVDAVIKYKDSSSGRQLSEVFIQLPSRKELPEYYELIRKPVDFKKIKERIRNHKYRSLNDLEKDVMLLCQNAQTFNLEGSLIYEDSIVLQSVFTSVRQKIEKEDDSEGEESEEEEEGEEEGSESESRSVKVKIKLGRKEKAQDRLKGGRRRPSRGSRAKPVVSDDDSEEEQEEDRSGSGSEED

Row | pIC50 ([1]; Table 3.1) | pIC50 ([2]; FL-SMARCA4 IC50, Table 3.2) | pIC50 ([1]; Table 3c.1) | pIC50 ([2]; FL-SMARCA4 IC>50, Table 3c.2) | SMILES
1 | 6.83 | 6.15 |  |  | Cn1c(C(=O)Nc2cc(F)c(=O)n(CCF)c2)cc(Cl)c1Cl [Compound 153]
2 | 5.71 | 5.09 |  |  | O=C(Nc1ccc(=O)n(CCF)c1)c1cc(Cl)n[nH]1 [Compound 154]
3 | 6.79 | 6.28 |  |  | O=C(Nc1cc(F)c(=O)n(CCF)c1)c1cc(Cl)n[nH]1 [Compound 155]
4 | 6.63 | 6.05 |  |  | O=C(Nc1cc(Cl)c(=O)n(CCF)c1)c1cc(Cl)n[nH]1 [Compound 156]
5 | 5.82 | 4.96 |  |  | O=C(Nc1ccc(=O)n(CCF)c1)c1cc(Cl)c(Cl)[nH]1 [Compound 157]
6 | 5.73 | 4.86 |  |  | CCn1cc(NC(=O)c2cc(Cl)c(Cl)[nH]2)cc(Cl)c1=O [Compound 158]
7 | 6.71 | 6.12 |  |  | O=C(Nc1cc(F)c(=O)n(CCF)c1)c1cc(Cl)c(Cl)[nH]1 [Compound 159]
8 | 6.65 | 6.06 |  |  | Cn1c(C(=O)Nc2cc(F)c(=O)n(CC(F)(F)F)c2)cc(Cl)c1C#N [Compound 160]
9 | 6.26 | 5.39 |  |  | CCn1cc(NC(=O)c2cc(Cl)c(C#N)n2C)cc(Cl)c1=O [Compound 161]
10 | 6.71 | 6.03 |  |  | Cn1c(C(=O)Nc2cc(Cl)c(=O)n(CCF)c2)cc(Cl)c1C#N [Compound 162]
11 | 6.51 | 5.93 |  |  | Cn1c(C(=O)Nc2cc(Cl)c(=O)n(CC(F)(F)F)c2)cc(Cl)c1C#N [Compound 163]
12 | 6.51 | 5.87 |  |  | CCn1cc(NC(=O)c2cc(Cl)c(Cl)n2C)cc(F)c1=O [Compound 164]
13 | 6.46 | 5.97 |  |  | CCn1cc(NC(=O)c2cc(Cl)n[nH]2)cc(F)c1=O [Compound 165]
14 | 5.56 | 4.78 |  |  | O=C(Nc1ccc(=O)n(CC(F)(F)F)c1)c1cc(Cl)c(Cl)[nH]1 [Compound 166]
15 | 6.22 | 5.54 |  |  | CCn1cc(NC(=O)c2cc(Cl)c(Cl)[nH]2)cc(F)c1=O [Compound 167]
16 | 6.43 | 5.85 |  |  | O=C(Nc1cc(F)c(=O)n(CC(F)(F)F)c1)c1cc(Cl)c(Cl)[nH]1 [Compound 169]
17 | < 4.30 | < 4.30 |  |  | CCn1cc(NC(=O)c2cc(OC)c(OC)s2)ccc1=O [Compound 171]
18 | 6.62 | 5.97 |  |  | CCn1cc(NC(=O)c2cc(C#N)c(Cl)s2)cc(Cl)c1=O [Compound 172]
19 | 6.41 | 5.83 |  |  | CCn1cc(NC(=O)c2cc(Cl)c(C#N)n2C)cc(F)c1=O [Compound 174]
20 | 5.69 | 5.25 |  |  | CCn1cc(NC(=O)c2cc(C#N)[nH]n2)ccc1=O [Compound 175]
21 |  |  | 5.04 | 5.04 | CNC(=O)c1cccc(N2CC(c3cc(C(=O)Nc4cc(F)c(=O)n(CC(F)F)c4)sc3Cl)C2)c1 [Compound 176c]
22 | < 4.30 | < 4.30 |  |  | Cc1cc(NC(=O)c2cc(Cl)c(Cl)s2)cn(C)c1=O [Compound 177]
23 | 4.51 | 4.42 |  |  | Cn1cc(NC(=O)c2cc(Cl)c(Cl)s2)cc(Cl)c1=O [Compound 178]
24 | < 4.30 | < 4.30 |  |  | CCn1cc(NC(=O)c2cc(OC)c(O)s2)ccc1=O [Compound 179]

Row | pIC50 ([1]; Table 3.1) | pIC50 ([2]; FL-SMARCA4 IC50, Table 3.2) | pIC50 ([1]; Table 3c.1) | pIC50 ([2]; FL-SMARCA4 IC>50, Table 3c.2) | SMILES
25 | 7.07 | 6.42 |  |  | CCn1cc(NC(=O)c2cc(C#N)c(Cl)s2)cc(F)c1=O [Compound 180]
26 | 6.94 | 6.50 |  |  | CCn1cc(NC(=O)c2cc(C#N)c(C#N)s2)ccc1=O [Compound 181]
27 | < 4.30 | < 4.30 |  |  | CCn1cc(NC(=O)c2cnc(C#N)[nH]2)ccc1=O [Compound 183]
28 | < 4.30 | < 4.30 |  |  | CCn1cc(NC(=O)c2csc(C(N)=O)n2)ccc1=O [Compound 184]
29 | < 4.30 | < 4.30 |  |  | CCc1cc(NC(=O)c2cc(Cl)c(Cl)s2)cn(C)c1=O [Compound 185]
30 | 4.81 | < 4.30 |  |  | CCn1cc(NC(=O)c2cc(Cl)c(Cl)s2)cc(Cc2cnn(C)c2)c1=O [Compound 186]
31 | 6.80 | 6.21 |  |  | N#Cc1cc(C(=O)Nc2ccc(=O)n(CCF)c2)sc1Cl [Compound 187]
32 | 5.91 | 5.05 |  |  | N#Cc1cc(NC(=O)c2cc(Cl)c(Cl)s2)cn(CCF)c1=O [Compound 193]
33 | 5.51 | 4.66 |  |  | Cn1c(C(=O)Nc2cc(Cl)c(=O)n(CCF)c2)cnc1Cl [Compound 194]
34 | 5.12 | 4.53 |  |  | Cn1c(C(=O)Nc2cc(Cl)c(=O)n(CC(F)(F)F)c2)cnc1Cl [Compound 195]
35 | 6.55 | 6.08 |  |  | N#Cc1cc(C(=O)Nc2ccc(=O)n(CC(F)(F)F)c2)sc1Cl [Compound 197]
36 | 6.97 | 6.55 |  |  | N#Cc1cc(C(=O)Nc2ccc(=O)n(CC(F)(F)F)c2)sc1C#N [Compound 198]
37 | < 4.30 | < 4.30 |  |  | CCn1cc(NC(=O)c2csc(C#N)n2)ccc1=O [Compound 199]
38 | 4.32 | 4.34 |  |  | COc1ccc(Cn2c(C(=O)Nc3ccc(=O)n(CCF)c3)cc(Cl)c2C#N)cc1 [Compound 200]
39 | < 4.30 | < 4.30 |  |  | O=C(Nc1cc(F)c(=O)n(CCF)c1)c1csc(NC2CCCC2)n1 [Compound 201]
40 | < 4.30 | < 4.30 |  |  | CCn1cc(NC(=O)c2csc(NC3CCCC3)n2)ccc1=O [Compound 202]
41 | 5.90 | 5.24 |  |  | Cn1c(C(=O)Nc2cc(C#N)c(=O)n(CCF)c2)cc(Cl)c1C#N [Compound 204]
42 | 5.46 | 4.65 |  |  | Cn1c(C(=O)Nc2cc(F)c(=O)n(CCF)c2)cnc1Cl [Compound 205]
43 | 6.50 | 6.19 |  |  | CCn1cc(NC(=O)c2cnc(C#N)s2)ccc1=O [Compound 206]
44 | 6.91 | 6.20 |  |  | N#Cc1cc(C(=O)Nc2cc(Cl)c(=O)n(CC(F)(F)F)c2)sc1Cl [Compound 208]
45 | < 4.30 | < 4.30 |  |  | CCn1cc(NC(=O)c2csc(NC)n2)ccc1=O [Compound 209]
46 | 6.68 | 6.16 |  |  | N#Cc1sc(C(=O)Nc2cc(C#N)c(=O)n(CCF)c2)cc1Cl [Compound 210]
47 | 5.64 | 4.56 |  |  | N#Cc1cc(NC(=O)c2cc(Cl)c(Cl)[nH]2)cn(CC(F)(F)F)c1=O [Compound 211]
48 | 5.07 | < 4.30 |  |  | Cn1c(C(=O)Nc2cc(F)c(=O)n(CC(F)(F)F)c2)cnc1Cl [Compound 212]

Row | pIC50 ([1]; Table 3.1) | pIC50 ([2]; FL-SMARCA4 IC50, Table 3.2) | pIC50 ([1]; Table 3c.1) | pIC50 ([2]; FL-SMARCA4 IC>50, Table 3c.2) | SMILES
49 | 4.75 | < 4.30 |  |  | Cn1c(C(=O)Nc2cc(C#N)c(=O)n(CCF)c2)cnc1Cl [Compound 213]
50 | 4.52 | < 4.30 |  |  | Cn1c(C(=O)Nc2cc(C#N)c(=O)n(CC(F)(F)F)c2)cnc1Cl [Compound 214]
51 | 7.15 | 6.31 |  |  | N#Cc1cc(C(=O)Nc2cc(Cl)c(=O)n(CCF)c2)sc1Cl [Compound 215]
52 | < 4.30 | < 4.30 |  |  | CCn1cc(NC(=O)c2cnc(NC3CCCC3)s2)ccc1=O [Compound 216]
53 | < 4.30 | < 4.30 |  |  | CCn1cc(NC(=O)c2cnc(NC(C)C)s2)ccc1=O [Compound 217]
54 | < 4.30 | < 4.30 |  |  | CCn1cc(NC(=O)c2csc(NC(C)C)n2)ccc1=O [Compound 218]
55 | < 4.30 | < 4.30 |  |  | O=C(Nc1cc(F)c(=O)n(CCF)c1)c1cnc(NC2CCCC2)s1 [Compound 219]
56 | 5.84 | 5.20 |  |  | Cn1c(C(=O)Nc2cc(F)c(=O)n(CC(F)(F)F)c2)cnc1C#N [Compound 221]
57 | < 4.30 | < 4.30 |  |  | Nc1ncc(C(=O)Nc2cc(F)c(=O)n(CCF)c2)s1 [Compound 224]
58 | < 4.30 | < 4.30 |  |  | CC(C)Nc1ncc(C(=O)Nc2cc(F)c(=O)n(CCF)c2)s1 [Compound 225]
59 | < 4.30 | < 4.30 |  |  | NC(=O)c1ncc(C(=O)Nc2cc(F)c(=O)n(CCF)c2)s1 [Compound 226]
60 | < 4.30 | < 4.30 |  |  | Cn1cc(C(=O)Nc2cc(F)c(=O)n(CCF)c2)sc1=O [Compound 227]
61 | < 4.30 | < 4.30 |  |  | CNc1ncc(C(=O)Nc2cc(F)c(=O)n(CCF)c2)s1 [Compound 228]
62 | 6.22 | 5.72 |  |  | N#Cc1cc(C(=O)Nc2cc(F)c(=O)n(CCF)c2)[nH]c1Cl [Compound 229]
63 | < 4.30 | < 4.30 |  |  | Cn1nc(C(=O)Nc2cc(F)c(=O)n(CCF)c2)cc1Cl [Compound 230]
64 | 5.12 | 4.44 |  |  | Cn1nc(Cl)cc1C(=O)Nc1cc(F)c(=O)n(CCF)c1 [Compound 233]
65 | < 4.30 | < 4.30 |  |  | O=C(Nc1cc(F)c(=O)n(CCF)c1)c1c[nH]c(=O)s1 [Compound 239]
66 | 6.95 | 6.18 |  |  | N#Cc1[nH]c(C(=O)Nc2cc(Cl)c(=O)n(CCF)c2)cc1Cl [Compound 241]
67 | 5.78 | 4.93 |  |  | Cn1nc(C#N)cc1C(=O)Nc1cc(F)c(=O)n(CCF)c1 [Compound 243]
68 | < 4.30 | < 4.30 |  |  | Cn1nc(C(=O)Nc2cc(F)c(=O)n(CCF)c2)cc1C#N [Compound 244]
69 | 5.70 | 4.92 |  |  | N#Cc1cc(C(=O)Nc2cc(F)c(=O)n(CCF)c2)oc1Cl [Compound 245]
70 | 5.87 | 5.20 |  |  | N#Cc1cc(C(=O)Nc2cc(F)c(=O)n(CCF)c2)oc1C#N [Compound 246]
71 | 4.60 | < 4.30 |  |  | Cc1cc(C(=O)Nc2cc(F)c(=O)n(CCF)c2)on1 [Compound 250]
72 | < 4.30 | < 4.30 |  |  | O=C(Nc1cc(F)c(=O)n(CCF)c1)c1cnc(Br)o1 [Compound 252]
